Measured values: patent publication US20030216334A1, “Methods for inhibiting/treating hiv infections and aids related symptoms” (priority 2003, published 2003)
pIC50: −log10 of the molar value. In brackets after ≈: the same amount, converted by molar mass.

Assays:
[1] = Viral cytopathogenicity, tetrazolium-based colorimetric assay, NL4-3
Description: (§1) Effect on Drug-Resistant Mutants. […] Viral cytopathogencity was determined by Serquest Inc., a Division of Southern Research Institute, Gaithersburg Md. using the tetrazolium-based calorimetric assay, and the data were analyzed using a program developed by the Southern Research Institute. A number of viruses were used in these studies, which include some that are resistant to both the NNRTIs and NRTIs.

NL4-3 (wild type) = test: as above; details: Human immunodeficiency virus 1, NL43
Description: as §1

in vitro = test: in vitro
Description: as §1

4XAZT = test: microbe, parasite or virus in culture; details: Human immunodeficiency virus 1
Description: as §1

HIV IIIB (wild type) = test: Viral cytopathogenicity, tetrazolium-based colorimetric assay, IIIB; format: cell-based
Description: as §1

DPS-R (Y181C) = test: microbe, parasite or virus in culture; format: cell-based, HIV; details: Human immunodeficiency virus 1
Description: as §1

K103N = test: microbe, parasite or virus in culture; format: cell-based, HIV; details: Human immunodeficiency virus 1, virus K103N
Description: as §1

L100I = test: microbe, parasite or virus in culture; format: cell-based, HIV; details: Human immunodeficiency virus 1, virus L100I
Description: as §1

Y181C = test: microbe, parasite or virus in culture; format: cell-based, HIV; details: Human immunodeficiency virus 1
Description: as §1

[2] = test system: HIV-1 attachment and entry into target cells; test: microbe, parasite or virus in culture
Source text: (§2) 2) Inhibition of HIV-1 attachment and entry into target cells.

[3] = test system: HeLa CD4 LTR β-gal and HL2/3 cells; test: Cell-to-cell fusion assay in the absence of virus
Source text: as §2

gp120 binding to CD4 = gp120 binding to CD4 (UniProt P01730+P04578); test: gp120/CD4 binding, cell-associated viral p24 antigen read-out
Source text: as §2

[4] = Human immunodeficiency virus 1, IIIB

Row | Structure (SMILES) | CC50 [1] [nM] | pIC50 (NL4-3 (wild type)) | CC50 (in vitro) [nM] | pIC50 (4XAZT) | pIC50 (HIV IIIB (wild type); [4]) | pIC50 (DPS-R (Y181C)) | pIC50 (K103N) | pIC50 (L100I) | pIC50 (Y181C) | pIC50 (HIV IIIB (wild type); virus IIIB) | TC50 ([2]; Attachment) [µg/mL] | IC50 ([2]; Human immunodeficiency virus 1, HeLa) [µg/mL] | IC50 [3] [µg/mL] | TC50 ([3]; Fusion) [µg/mL] | TI (gp120 binding to CD4; gp120/CD4 Binding) | CC50 (gp120 binding to CD4; human, HIV-1 infected HeLa CD4 LTR β-gal cells) [µg/mL]
1 | Cc1ccnc2c1NC(=O)c1cccnc1N2C1CC1 [Nevirapine, nevirapine] | 10000 | 7.22 | 1000 | 7.30 | 7.52 | ≤ 5.00 | 5.49 | 6.82 | 5.99 | – | – | – | – | – | – | –
2 | Cc1cn([C@H]2C[C@H](N=[N+]=[N-])[C@@H](CO)O2)c(=O)[nH]c1=O [AZT, zidovudine] | 1000 | 7.22 | – | ≤ 6.00 | 8.52 | 7.70 | – | 8.52 | 8.00 | 8.49 | – | – | – | – | – | –
3 | COc1cc(-c2ccc(/N=N/c3ccc4c(S(=O)(=O)O)cc(S(=O)(=O)O)c(N)c4c3O)c(OC)c2)ccc1/N=N/c1ccc2c(S(=O)(=O)O)cc(S(=O)(=O)O)c(N)c2c1O [CSB, Chicago Sky Blue] | – | – | – | – | – | – | – | – | – | – | >10 | 1.19 (≈ 1.32 µM) | 0.67 (≈ 0.74 µM) | >10 | 8.3 | > 10
